The values that follow come from BindingDB's records for doi:10.1124/jpet.104.081497 (Katholieke Universiteit Leuven, 2005).

One may read the Ki as a dissociation constant, usually derived from enzyme kinetics or from competition with a known ligand. A lower Ki goes with tighter binding.

The assay deals with T1, Promotilin (Homo sapiens, UniProt P12872).
T1 sequence (P12872 whole entry): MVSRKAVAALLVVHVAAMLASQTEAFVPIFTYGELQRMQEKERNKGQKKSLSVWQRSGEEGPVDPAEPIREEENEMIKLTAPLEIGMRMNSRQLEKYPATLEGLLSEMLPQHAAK

For `CC[C@H]1OC(=O)[C@H](C)[C@@H](O[C@H]2C[C@@](C)(OC)C[C@H](C)O2)[C@H](C)[C@@H](O[C@@H]2O[C@H](C)C[C@H](N(C)CC)[C@H]2O)[C@@]2(C)CC(C)=C(O2)[C@H](C)[C@@H](O)[C@H]1C` [ABT-229], the affinity corresponds to a Ki of 58.9 nM.

On to `CC[C@H]1OC(=O)[C@H](C)[C@@H](O[C@H]2C[C@@](C)(OC)[C@@H](O)[C@H](C)O2)[C@H](C)[C@@H](O[C@@H]2O[C@H](C)C[C@H](N(C)C)[C@H]2O)[C@](C)(O)C[C@@H](C)C(=O)[C@H](C)[C@@H](O)[C@]1(C)O` [CAS_114-07-8], for which the Ki is 3090 nM.

As for `CC[C@H](C)[C@H](NC(=O)[C@@H]1CCCN1C(=O)[C@@H](NC(=O)[C@@H](N)Cc1ccccc1)C(C)C)C(=O)N[C@@H](Cc1ccccc1)C(=O)N[C@H](C(=O)N[C@@H](Cc1ccc(O)cc1)C(=O)NCC(=O)N[C@@H](CCC(=O)O)C(=O)N[C@@H](CC(C)C)C(=O)N[C@@H](CCC(N)=O)C(=O)N[C@@H](CCCNC(=N)N)C(=O)N[C@@H](CCSC)C(=O)N[C@@H](CCC(N)=O)C(=O)N[C@@H](CCC(=O)O)C(=O)N[C@@H](CCCCN)C(=O)N[C@@H](CCC(=O)O)C(=O)N[C@@H](CCCNC(=N)N)C(=O)N[C@@H](CC(N)=O)C(=O)N[C@@H](CCCCN)C(=O)NCC(=O)N[C@@H](CCC(N)=O)C(=O)O)[C@@H](C)O` [CAS_52906-92-0], the Ki was found to be 2.82 nM.

`CC[C@H]1OC(=O)[C@H](C)[C@@H](O[C@H]2C[C@@](C)(OC)[C@@H](O)[C@H](C)O2)[C@H](C)[C@@H](O[C@@H]2O[C@H](C)C[C@H](N(C)C)[C@H]2O)[C@]2(C)CC(C)=C(O2)[C@H](C)[C@@H](O)[C@@H]1C` [EM-B enolether] showed a Ki of 324 nM.

On to `CC[C@H]1OC(=O)[C@H](C)[C@@H](O[C@H]2C[C@@](C)(OC)[C@@H](O)[C@H](C)O2)[C@H](C)[C@@H](O[C@@H]2O[C@H](C)C[C@H](N(C)C)[C@H]2O)[C@@]2(C)CC(C)=C(O2)[C@H](C)[C@@H](O)[C@]1(C)O` [Erythromycin-A enol ether], for which the Ki came out at 257 nM.

For `C#CCN(C)C1CC(C)OC(OC2C(C)C(OC3CC(C)(OC)C(O)C(C)O3)C(C)C(=O)OC(CC)C(C)(O)C(O)C(C)C(=O)C(C)CC2(C)O)C1O` (stereo unspecified) [ME36], the Ki is more than 10000 nM.
